This is an account of results in publication PMC3963473, “Structure–Activity Relationship Studies of Pyrrolone Antimalarial Agents” (Chemmedchem, 2013).

Data set [1] is described as follows: Aqueous solubility estimated by nephelometry. In kind it is physicochemical. The conditions noted are these: kinetic from dmso stock. The procedure: III. Physicochemical Evaluation […]
Solubility Estimation: Aqueous solubility was estimated by nephelometry.
Compound in DMSO was spiked into either water, pH 6.5 phosphate buffer or 0.01N HCl
(approx. pH 2.0) with the final DMSO concentration being 1%. Samples were then
analyzed by Nephelometry to determine the solubility range as described previously.1

The test system of the next data set is Plasmodium falciparum K1. In words: microbe, parasite or virus in culture. It is filed as cell-based. The following applies: for EC50: Plasmodium falciparum, K1, read-out: EC50 P. falc. The procedure: (§1) V. Design and Results of the in vitro & in vivo Studies.
A. Drug inhibition of in vitro cultured P. falciparum parasite:2 All in vitro assays were carried out twice independently. In vitro activity against the erythrocytic stages of P. falciparum was determined by using a 3H-hypoxanthine incorporation assay,5-6 using the […]
were dissolved in DMSO at 10 mg/mL and added to parasite cultures incubated in RPMI […]
haematocrit (0.3% parasitaemia). Serial doubling dilutions of each drug were prepared in […]
After 48 h, 50 µL of 3H-hypoxanthine (= 0.5 µCi) was added to each well of the plate. The plates were incubated for an additional 24 h under the same conditions. The plates were then harvested with a Betaplate cell harvester (Wallac, Zurich, Switzerland), and the red blood cells were transferred onto a glass fiber filter and then washed with distilled water. The dried filters were inserted into a plastic foil with 10 mL of scintillation fluid and were counted in a Betaplate™ liquid scintillation counter (Wallac, Zurich, […]

A further data set deals with L6 cells. Nature of the data set: In vitro cytotoxicity assay in L6 cells (Alamar Blue). In kind it is cell-based. The conditions noted are these: Rattus norvegicus, mean of two independent assays, read-out: EC50 L6 cells. The procedure:
as §1
A. Drug inhibition of in vitro cultured P. falciparum parasite:2 All in vitro assays were carried out twice independently. In vitro activity against the erythrocytic stages of P. […]
B. In vitro cytotoxicity assay:2 Assays were performed in 96-well microtiter plates, each […]
mM) and 10% fetal bovine serum, and 4 x 10^4 L-6 cells (a primary cell line derived from rat skeletal myoblasts). Serial drug dilutions of seven 3-fold dilution steps covering a range […]
After 72 h of incubation the plates were inspected […]
of Alamar Blue was then added to each well and the plates incubated for another 2 h.
Then the plates were read with a Spectramax Gemini XS microplate fluorometer (Molecular Devices Cooperation, Sunnyvale, CA, USA) using an excitation wave length of […]
Data were analysed using the microplate reader software Softmax Pro (Molecular Devices Cooperation, Sunnyvale, CA, USA).
For orientation: Alamar Blue is a resazurin reagent that responds to reducing activity.

The test system of data set [2] is green fluorescent protein (GFP)-transfected Plasmodium berghei ANKA. It is filed as in vivo. The conditions noted are these: for [%] Reduction parasitaemia: mice, 10 % DMSO in water; for Survival: in vivo. The protocol:
In vivo efficacy studies: The protocols are described in the Supporting Information. In vivo efficacy studies in mice were conducted at the Swiss Tropical & Public Health Institute (Basel, Switzerland) according to the rules and regulations for the protection of animal rights (“Tierschutzverordnung”) of the Swiss “Bundesamt für Veterinärwesen”. They were approved by the veterinary office of Canton Basel-Stadt, Switzerland.
C. In vivo antimalarial efficacy studies (4 days treatment).2
In vivo antimalarial activity was assessed basically as previously described. Groups of […]
erythrocytes on day 0 with GFP-transfected P. berghei strain ANKA. .Unless otherwise indicated compounds were formulated in 100% DMSO, diluted 10-fold in distilled water and administered intraperitoneally or orally in a volume of 10 mL kg-1 on four consecutive days (4, 24, 48 and 72 h post infection). Parasitemia was determined on day 4 post infection (24 h after last treatment) by FACS analysis. Activity was calculated as the difference between the mean per cent parasitaemia for the control (n=5 mice) and treated groups expressed as a per cent relative to the control group. The survival time in days was also recorded up to 30 days after infection. A compound was considered curative if the animal survived to day 30 after infection with no detectable parasites. All protocols and procedures used in the current study were reviewed and approved by the local veterinary authorities of the Canton Basel-Stadt.

A further data set deals with Plasmodium berghei. More on the design: method as in PMID 23517371. The following applies: P. berghei mouse model; dosed intraperitoneally; cited from earlier work.
Where [3] appears, read: Table 1, water, nephelometry, 1% DMSO, read-out: Solubility water.
The mark [4] stands for this setting: Table 1, A-ring variants, mammalian L6 cells.
Where [5] appears, read: Table 2, water, read-out: Solubility water.
[6] abbreviates: Table 2, C-ring variants, L6 cells.
[7] abbreviates: aqueous buffer, pH 6.5 phosphate buffer, nephelometry, 1% DMSO, read-out: Solubility pH 6.5.
Setting [8] is: simulated gastric fluid, pH 2.0 (0.01N HCl), nephelometry, 1% DMSO, read-out: Solubility pH 2.0.

Molecules are shown by their SMILES. Converted amounts (≈) assume the structure as drawn. Where two headings read alike, the source gives them in different places. Bounds are passed on as bounds.

Consider `CCOC(=O)C1=C(C)N/C(=C/c2cc(C)n(C3CCN(C(C)c4ccccc4C(F)(F)F)CC3)c2C)C1=O` (stereo not shown) [Compound 36], for which the melting point (commonly the temperature, or range, at which the solid turns liquid) fell in the range of 138 to 142 °C. The solubility – broadly, how much of the substance goes into solution per volume – in data set [1] (setting [3]) was more than 125 µM. For the same molecule, in the data set on Plasmodium falciparum K1, the EC50 (commonly the concentration needed to bring the measured effect to its halfway point) amounted to 1 nM. Further, in the data set on L6 cells (setting [4]), the EC50 is 3000 nM.
Take `Cc1cc(/C=C2/Nc3ccn(C)c(=O)c3C2=O)c(C)n1-c1ccccc1C(F)(F)F` [Compound 57]: the solubility in data set [1] (setting [5]) was more than 125 µM. The figures for the “[%] Reduction parasitaemia” value in data set [2] (50 mg kg^−1 day^−1 ip) and in data set [2] (100 mg kg^−1 day^−1 po) were 99.9% and 50.5%, respectively. The molecule also yielded a Survival in data set [2] (po) of 8 days. Besides, the half-maximal effective concentration (EC50) with Plasmodium falciparum K1 amounted to 14 nM; with L6 cells (setting [6]) it was 29000 nM.
Consider `CCn1ccc2c(c1=O)C(=O)/C(=C\c1cc(C)n(-c3ccccc3C(F)(F)F)c1C)N2` [Compound 58], for which the melting point was 204 to 205 °C. Also, the solubility in data set [1] (setting [5]) is more than 125 µM. In addition, the EC50 in the data set with Plasmodium falciparum K1 amounted to 21 nM. Moreover, in the data set with L6 cells (setting [6]), the concentration for a half-maximal effect (EC50) was determined as 36000 nM.
In the case of `CCOC(=O)C1=C(C)N/C(=C/c2cc(C)n(C3CCN(Cc4ccccc4)CC3)c2C)C1=O` [Compound 17, (E)-Ethyl 5-((1-(1-benzylpiperidin-4-yl)-2,5-dimethyl-1H-pyrrol-3-yl)methylene)-2-methyl-4-oxo-4,5-dihydro-1H-pyrrole-3-carboxylate], the melting point was 150 to 155 °C. The solubility in data set [1] (setting [7]) was 14 to 28 µM (≈ 6.27 to 12.5 µg/mL). Besides, the solubility in data set [1] (setting [3]) was more than 125 µM. In addition, the solubility in data set [1] (setting [8]) is 56 to 110 µM (≈ 25.1 to 49.2 µg/mL). Also, in the data set on Plasmodium falciparum K1, the EC50 was found to be 35 nM. Also, the 50% effective concentration (EC50) with L6 cells (setting [4]) worked out at 20000 nM.
`CCOC(=O)C1=C(C)N/C(=C/c2cc(C)n(C3CCN(Cc4cocn4)CC3)c2C)C1=O` [Compound 48]: the melting point was in the range of 180 to 182 °C. In addition, the solubility in data set [1] (setting [3]) is more than 125 µM. Besides, the concentration for a half-maximal effect (EC50) in the data set on Plasmodium falciparum K1 was 18 nM. The EC50 with L6 cells (setting [4]) was 160 nM.
For `CCOC(=O)C1=C(C)N/C(=C/c2cc(C)n(C3CCN(Cc4ccc(-c5noc(C)n5)cc4)CC3)c2C)C1=O` [Compound 51] the same measures were 195 to 200 °C, more than 125 µM, 1 nM and 11000 nM.
The molecule `CCOC(=O)C1=C(C)N/C(=C/c2cc(C)n(C3CCN(CC4CCCCC4)CC3)c2C)C1=O` [Compound 40] had a melting point of 184 to 186 °C. The solubility in data set [1] (setting [3]) is more than 125 µM. For the same molecule, in the data set on Plasmodium falciparum K1, the concentration for a half-maximal effect (EC50) was 16 nM. Besides, the half-maximal effective concentration (EC50) with L6 cells (setting [4]) amounted to 13000 nM.
On to `CCOC(=O)C1=C(C)N/C(=C/c2cc(C)n(C3CCN(c4ccc(C(F)(F)F)cc4)CC3)c2C)C1=O` [Compound 30], for which the melting point lay in the range of 153 to 158 °C. Further, the solubility in data set [1] (setting [3]) was more than 125 µM. The concentration giving a half-maximal response (EC50) in the data set with Plasmodium falciparum K1 was 24 nM. In the data set on L6 cells (setting [4]), the EC50 was determined as 10000 nM.
In the case of `CCOC(=O)C1=C(C)N/C(=C/c2cc(C)n(C3CCN(Cc4ccc(F)cc4C(F)(F)F)CC3)c2C)C1=O` [Compound 44], the melting point is 145 to 148 °C. In addition, the solubility in data set [1] (setting [3]) is more than 125 µM. Besides, the EC50 with Plasmodium falciparum K1 was 0.4 nM. The “EC50 (P. falciparum K1)” value in the data set on Plasmodium falciparum K1 (values in nM) was “sub-nanomolar”. Also, the EC50 with L6 cells (setting [4]) is 1200 nM.
`Cc1cc(/C=C2/Nc3cc[nH]c(=O)c3C2=O)c(C)n1-c1ccccc1C(F)(F)F` [Compound 56]: the solubility in data set [1] (setting [5]) was more than 125 µM. The “[%] Reduction parasitaemia” value in data set [2] (50 mg kg^−1 day^−1 ip) turned out to be 21.8%; in data set [2] (100 mg kg^−1 day^−1 po), 13.6%. Besides, the Survival in data set [2] (ip) and in data set [2] (po) was 4 days throughout. Also, the EC50 worked out at 47 nM in the data set with Plasmodium falciparum K1 and 54000 nM in the data set on L6 cells (setting [6]).
`Cc1cc(/C=C2/Nc3ccn(Cc4ccncc4)c(=O)c3C2=O)c(C)n1-c1ccccc1C(F)(F)F` [Compound 64] yielded a melting point of 215 to 240 °C. Further, the solubility in data set [1] (setting [5]) was more than 125 µM. In the data set with Plasmodium falciparum K1, the EC50 was determined as 77 nM. For the same molecule, in the data set with L6 cells (setting [6]), the concentration giving a half-maximal response (EC50) stood at 38000 nM.
Regarding `CCOC(=O)C1=C(C)N/C(=C/c2cc(C)n(C3CCN(Cc4ccc(C(F)(F)F)nc4)CC3)c2C)C1=O` [Compound 43], the solubility in data set [1] (setting [3]) is more than 125 µM. Further, the “[%] Reduction parasitaemia” value in data set [2] (50 mg kg^−1 day^−1 ip) was 10.0%; in data set [2] (100 mg kg^−1 day^−1 po), 0.0%. Also, the “activity in vivo (in words)” value in data set [2] (50 mg/kg ip and 100 mg/kg po) is recorded as “failed to show significant activity in vivo”. Moreover, the Survival in data set [2] (ip) and in data set [2] (po) was 4 days each time. Also, the EC50 in the data set with Plasmodium falciparum K1 is 4 nM; in the data set on L6 cells (setting [4]), 49000 nM.
`CCOC(=O)C1=C(C)N/C(=C/c2cc(C)n(C3CCN(CC)CC3)c2C)C1=O` [Compound 20]: the melting point was 140 to 145 °C. Besides, the solubility in data set [1] (setting [7]) is more than 250 µM. The solubility in data set [1] (setting [8]) was more than 250 µM. Further, in the data set with Plasmodium falciparum K1, the EC50 is 2400 nM. Further, the EC50 in the data set with L6 cells (setting [4]) turned out to be 7600 nM.
Take `Cc1cc(/C=C2/Nc3ccn(Cc4ccc(C(F)(F)F)cc4)c(=O)c3C2=O)c(C)n1-c1ccccc1C(F)(F)F` [Compound 63]: the melting point is 235 to 240 °C. In addition, the solubility in data set [1] (setting [5]) was 89 µM (≈ 49.6 µg/mL). Moreover, the concentration giving a half-maximal response (EC50) in the data set with Plasmodium falciparum K1 was 46 nM. The 50% effective concentration (EC50) with L6 cells (setting [6]) worked out at 54000 nM.
Consider `CCOC(=O)C1=C(C)N/C(=C/c2cc(C)n(-c3ccccc3C(F)(F)F)c2C)C1=O` [TDR32750], for which the depression of parasitaemia in the data set with Plasmodium berghei is on record as more than 99%.
Take `CCOC(=O)C1=C(/C=C/N(C)C)N/C(=C/c2cc(C)n(-c3ccccc3C(F)(F)F)c2C)C1=O` [Compound 55, (E)-Ethyl 5-((2,5-dimethyl-1-(2-(trifluoromethyl)phenyl)-1H-pyrrol-3-yl)methylene)-2-((E)-2-(dimethylamino)vinyl)-4-oxo-4,5-dihydro-1H-pyrrole-3-carboxylate]: in data set [1] (setting [5]), the solubility is more than 125 µM. Also, the EC50 in the data set with Plasmodium falciparum K1 turned out to be 61 nM; in the data set on L6 cells (setting [6]), 56000 nM.
